Measured values published in patent US20230174510A1, “N-acetylserotonin Derivatives as TrkB Activators and Uses Thereof” (Emory University, priority 2020, published 2023).
“Also recorded” adds a separate entry of the source.

tested on: kainic acid-induced neuronal cell death; assay: not given; conditions: TrkB-dependent; cited from earlier work

SMILES | kainic acid-induced neuronal cell death / apoptosis
O=C1NCCCC1C(=O)NCCc1c[nH]c2ccc(O)cc12 (stereo not drawn) [HIOC, N-[2-(5-hydroxy-1H-indol-3-yl)ethyl]-2-oxopiperidine-3-carboxamide] | inhibits neuronal apoptosis; also recorded: reduces kainic acid-induced neuronal cell death

target: T1, TrkB (Mus musculus, UniProt P15209); assay: TrkB activation in retina and brain after systemic administration; type: in vivo; conditions: following a single injection
T1 construct: from tissue; host or cells: retina (ganglion cells) and brain
T1 sequence (P15209 32-821): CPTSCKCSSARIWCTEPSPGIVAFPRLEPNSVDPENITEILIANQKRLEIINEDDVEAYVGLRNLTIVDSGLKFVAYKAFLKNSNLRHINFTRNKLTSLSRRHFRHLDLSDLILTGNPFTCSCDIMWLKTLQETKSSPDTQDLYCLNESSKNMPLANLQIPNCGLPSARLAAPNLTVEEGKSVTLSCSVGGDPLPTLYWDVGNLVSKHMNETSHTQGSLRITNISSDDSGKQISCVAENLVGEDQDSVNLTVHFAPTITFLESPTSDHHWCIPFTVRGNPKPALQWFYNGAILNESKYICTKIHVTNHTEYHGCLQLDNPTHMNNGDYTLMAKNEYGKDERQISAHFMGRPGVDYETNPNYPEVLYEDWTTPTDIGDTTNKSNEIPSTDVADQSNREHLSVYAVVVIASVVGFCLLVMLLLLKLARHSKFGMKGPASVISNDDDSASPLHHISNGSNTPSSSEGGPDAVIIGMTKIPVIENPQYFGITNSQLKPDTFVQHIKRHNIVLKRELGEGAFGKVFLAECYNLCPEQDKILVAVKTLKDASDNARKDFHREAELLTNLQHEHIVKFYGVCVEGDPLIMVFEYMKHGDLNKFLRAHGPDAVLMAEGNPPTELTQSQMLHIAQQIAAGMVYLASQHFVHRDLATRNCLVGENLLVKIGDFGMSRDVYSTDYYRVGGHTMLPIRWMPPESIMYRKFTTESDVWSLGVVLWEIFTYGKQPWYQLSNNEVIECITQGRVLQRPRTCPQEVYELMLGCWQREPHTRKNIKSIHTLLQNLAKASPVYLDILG
Text: This disclosure contemplates pharmaceutical treatments for trauma-induced vision loss that can be administered on the battlefield or in field hospitals during the critical period before irreversible neuronal degeneration and vision loss occur. A mouse blast injury model has been used to characterize the effects of blast injury to the eye and visual system. Blast injury results in (1) inflammatory responses (microglial activation and reactive gliosis) and activation of the innate and acquired immune system; (2) loss of visual function (contrast sensitivity and visual acuity); (3) thinning of the nerve fiber layer of the retina, and (4) axon loss in the optic nerve. An N-acetylserotonin derivative, N-[2-(5-hydroxy-1H-indol-3-yl)ethyl]-2-oxopiperidine-3-carboxamide (HIOC), effectively mitigates vision loss when administered within several hours after blast exposure (FIG. 1). Daily administration for one week reduces or prevents blast-induced loss of visual function for at least 4 months, mitigating the progressive vision loss that occurs over time in the absence of treatment. This therapeutic effect of HIOC is mediated by activation of TrkB, the cognate receptor for Brain-Derived Neurotrophic Factor (BDNF). Both N-acetylserotonin and HIOC activate TrkB and have neuroprotective properties. […]

SMILES | duration of TrkB activation
O=C1NCCCC1C(=O)NCCc1c[nH]c2ccc(O)cc12 (stereo not drawn) [HIOC, N-[2-(5-hydroxy-1H-indol-3-yl)ethyl]-2-oxopiperidine-3-carboxamide] | up to 16 hours

same assay, conditions: systemic administration

SMILES | blood-retinal and blood-brain barrier penetration
O=C1NCCCC1C(=O)NCCc1c[nH]c2ccc(O)cc12 (stereo not drawn) [HIOC, N-[2-(5-hydroxy-1H-indol-3-yl)ethyl]-2-oxopiperidine-3-carboxamide] | crosses the blood-retinal and blood-brain barriers

tested on: AKT; assay: AKT phosphorylation, western blot, primary rat cortical neuronal culture; type: cell-based; design: key: “+”=increased phosphorylation; “−”=decreased phosphorylation; “nc”=no change; conditions: not given
Protocol: (§1) Different concentrations of 2-fluoro-N-(2-(5-hydroxy-1H-indol-3-yl)ethyl)nicotinamide (analogue 147) were tested in NIH-3T3-TrkB cells. Cells at 70-80% confluency were serum deprived overnight and then stimulated with different concentrations of analogue 147 for 30 minutes. Protein extract was collected and subjected for western blot analysis. […] “+”=increased phosphorylation; “−”=decreased phosphorylation; “nc”=no change.
(§2) To screen the analogs for biological activity, the phosphorylation state of TrkB and AKT, a downstream signaling mediator of TrkB activation, was examined in cultured NIH/3T3 cells expressing human TrkB and in primary cultures of rat cortical neurons (see FIG. 5).

SMILES | pAkt/β-actin
O=C(NCCc1c[nH]c2ccc(O)cc12)c1ccccc1 [Analogue 83, N-(2-(5-hydroxy-1H-indol-32-yl)ethyl)benzamide] | +
O=C(NCCc1c[nH]c2ccc(O)cc12)c1cccnc1 [Analogue 85, N-(2-(5-hydroxy-1H-indol-3-yl)ethyl)nicotinamide] | +
O=C(NCCc1c[nH]c2ccc(O)cc12)c1ccccn1 [Analogue 105, N-(2-(5-hydroxy-1H-indol-3yl)ethyl)picolinamide] | +
O=C(NCCc1c[nH]c2ccc(O)cc12)c1ccncc1 [Analogue 107, N-(2-(5-hydroxy-1H-indol-3-yl)ethyl)isonicotinamide] | +
O=C(NCCc1c[nH]c2ccc(O)cc12)c1ccc(F)cn1 [Analogue 112, 5-fluoro-N-(2-(5-hydroxy-1H-indol-3yl)ethyl)picolinamide] | −
O=C(NCCc1c[nH]c2ccc(O)cc12)c1ccncc1F [Analogue 114, 3-fluoro-N-(2-(5-hydroxy-1H-indol-3-yl)ethyl)isonicotinamide] | nc
O=C1NCCCC1C(=O)NCCc1c[nH]c2ccc(O)cc12 (stereo not drawn) [HIOC, N-[2-(5-hydroxy-1H-indol-3-yl)ethyl]-2-oxopiperidine-3-carboxamide] | +

target: T2, TrkB (Rattus norvegicus, UniProt Q63604); assay: TrkB phosphorylation, western blot, primary rat cortical neuronal culture; type: cell-based; design: key: “+”=increased phosphorylation; “−”=decreased phosphorylation; “nc”=no change; conditions: not given
T2 construct: in primary cultures of rat cortical neurons; endogenous in cells; host or cells: primary rat cortical neurons
T2 sequence (Q63604 32-821): as the sequence (P15209 32-821) above, with T3M, S9T, A10T, V32I, R63K, S84G, M153T, L185I, S394T, S770N counted along it
Protocol: as §1, §2

SMILES | pTrkB/β-actin
O=C(NCCc1c[nH]c2ccc(O)cc12)c1ccccc1 [Analogue 83, N-(2-(5-hydroxy-1H-indol-32-yl)ethyl)benzamide] | +
O=C(NCCc1c[nH]c2ccc(O)cc12)c1cccnc1 [Analogue 85, N-(2-(5-hydroxy-1H-indol-3-yl)ethyl)nicotinamide] | +
O=C(NCCc1c[nH]c2ccc(O)cc12)c1ccccn1 [Analogue 105, N-(2-(5-hydroxy-1H-indol-3yl)ethyl)picolinamide] | +
O=C(NCCc1c[nH]c2ccc(O)cc12)c1ccncc1 [Analogue 107, N-(2-(5-hydroxy-1H-indol-3-yl)ethyl)isonicotinamide] | +
O=C(NCCc1c[nH]c2ccc(O)cc12)c1ccc(F)cn1 [Analogue 112, 5-fluoro-N-(2-(5-hydroxy-1H-indol-3yl)ethyl)picolinamide] | +
O=C(NCCc1c[nH]c2ccc(O)cc12)c1ccncc1F [Analogue 114, 3-fluoro-N-(2-(5-hydroxy-1H-indol-3-yl)ethyl)isonicotinamide] | nc
O=C1NCCCC1C(=O)NCCc1c[nH]c2ccc(O)cc12 (stereo not drawn) [HIOC, N-[2-(5-hydroxy-1H-indol-3-yl)ethyl]-2-oxopiperidine-3-carboxamide] | +

tested on: photoreceptor damage; assay: not given; conditions: cited from earlier work

SMILES | photoreceptor damage from toxic light exposure
O=C1NCCCC1C(=O)NCCc1c[nH]c2ccc(O)cc12 (stereo not drawn) [HIOC, N-[2-(5-hydroxy-1H-indol-3-yl)ethyl]-2-oxopiperidine-3-carboxamide] | reduces photoreceptor damage

target: T3, TrkB (Homo sapiens, UniProt Q16620); assay: TrkB phosphorylation, western blot, NIH 3T3 cells expressing human TrkB; type: cell-based; design: expressed in transfected cells; host or cells: NIH/3T3 (NIH-3T3-TrkB) cells; key to pTrkB/β-actin: “+”=increased phosphorylation; “−”=decreased phosphorylation; “nc”=no change; conditions: NIH 3T3 - TrkB cells, western blot
Protocol: as §1, §2
Target sequence in this assay (Q16620 32-822): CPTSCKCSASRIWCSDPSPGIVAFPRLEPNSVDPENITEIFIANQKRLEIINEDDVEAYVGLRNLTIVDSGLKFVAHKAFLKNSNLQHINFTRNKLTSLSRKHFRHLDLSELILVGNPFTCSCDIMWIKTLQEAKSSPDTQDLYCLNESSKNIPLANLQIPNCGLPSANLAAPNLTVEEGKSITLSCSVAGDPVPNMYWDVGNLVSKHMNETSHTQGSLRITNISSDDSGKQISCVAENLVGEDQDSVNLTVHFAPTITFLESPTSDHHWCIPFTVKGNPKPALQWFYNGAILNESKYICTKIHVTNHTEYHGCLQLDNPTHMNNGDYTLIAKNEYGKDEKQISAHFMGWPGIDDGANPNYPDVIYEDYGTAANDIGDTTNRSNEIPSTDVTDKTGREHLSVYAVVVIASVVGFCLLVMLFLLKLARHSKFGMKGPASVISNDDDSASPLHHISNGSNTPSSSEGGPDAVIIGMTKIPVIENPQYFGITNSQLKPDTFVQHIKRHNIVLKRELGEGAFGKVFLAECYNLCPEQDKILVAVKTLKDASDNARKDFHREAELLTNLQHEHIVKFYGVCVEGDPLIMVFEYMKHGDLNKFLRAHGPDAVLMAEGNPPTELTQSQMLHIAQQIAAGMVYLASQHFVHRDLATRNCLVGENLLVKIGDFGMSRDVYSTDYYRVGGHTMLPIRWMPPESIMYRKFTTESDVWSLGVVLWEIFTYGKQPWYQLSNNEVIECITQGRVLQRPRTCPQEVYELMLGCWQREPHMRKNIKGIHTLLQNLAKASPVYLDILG

SMILES | pTrkB/β-actin
O=C(NCCc1c[nH]c2ccc(O)cc12)c1ccccc1 [Analogue 83, N-(2-(5-hydroxy-1H-indol-32-yl)ethyl)benzamide] | +
O=C(NCCc1c[nH]c2ccc(O)cc12)c1cccnc1 [Analogue 85, N-(2-(5-hydroxy-1H-indol-3-yl)ethyl)nicotinamide] | nc
O=C(NCCc1c[nH]c2ccc(O)cc12)c1ccccn1 [Analogue 105, N-(2-(5-hydroxy-1H-indol-3yl)ethyl)picolinamide] | −
O=C(NCCc1c[nH]c2ccc(O)cc12)c1ccncc1 [Analogue 107, N-(2-(5-hydroxy-1H-indol-3-yl)ethyl)isonicotinamide] | +
O=C1NCCCC1C(=O)NCCc1c[nH]c2ccc(O)cc12 (stereo not drawn) [HIOC, N-[2-(5-hydroxy-1H-indol-3-yl)ethyl]-2-oxopiperidine-3-carboxamide] | +

tested on: brain damage from subarachnoid hemorrhage; assay: not given; conditions: cited from earlier work

SMILES | brain damage from subarachnoid hemorrhage
O=C1NCCCC1C(=O)NCCc1c[nH]c2ccc(O)cc12 (stereo not drawn) [HIOC, N-[2-(5-hydroxy-1H-indol-3-yl)ethyl]-2-oxopiperidine-3-carboxamide] | attenuates brain damage

target: T3, TrkB; assay: not given; conditions: cited from earlier work
Target sequence in this assay (Q16620 32-822, species assumed): as the sequence (Q16620 32-822) above

SMILES | TrkB activation
O=C1NCCCC1C(=O)NCCc1c[nH]c2ccc(O)cc12 (stereo not drawn) [HIOC, N-[2-(5-hydroxy-1H-indol-3-yl)ethyl]-2-oxopiperidine-3-carboxamide] | activate TrkB; also recorded: selectively activates TrkB

tested on: blast-induced loss of visual function; assay: Mouse blast injury (TBI) model, loss of visual function; type: in vivo; conditions: blast exposure
Protocol: Mice were exposed to a single 70 psi blast directed at the right side of the head. HIOC or vehicle was administered 15 minutes after exposure to blast, and daily for the next six days. A sham control group was included for comparison. Visual function was tested 1 week after blast.
This disclosure contemplates pharmaceutical treatments for trauma-induced vision loss that can be administered on the battlefield or in field hospitals during the critical period before irreversible neuronal degeneration and vision loss occur. A mouse blast injury model has been used to characterize the effects of blast injury to the eye and visual system. Blast injury results in (1) inflammatory responses (microglial activation and reactive gliosis) and activation of the innate and acquired immune system; (2) loss of visual function (contrast sensitivity and visual acuity); (3) thinning of the nerve fiber layer of the retina, and (4) axon loss in the optic nerve. An N-acetylserotonin derivative, N-[2-(5-hydroxy-1H-indol-3-yl)ethyl]-2-oxopiperidine-3-carboxamide (HIOC), effectively mitigates vision loss when administered within several hours after blast exposure (FIG. 1). Daily administration for one week reduces or prevents blast-induced loss of visual function for at least 4 months, mitigating the progressive vision loss that occurs over time in the absence of treatment. This therapeutic effect of HIOC is mediated by activation of TrkB, the cognate receptor for Brain-Derived Neurotrophic Factor (BDNF). Both N-acetylserotonin and HIOC activate TrkB and have neuroprotective properties. The pharmacokinetic characteristics of HIOC are desirable for an in vivo treatment because TrkB is activated for up to 16 hours following a single injection.
The ability of HIOC to mitigate the loss of visual function resulting from blast directed at the head was examined (FIG. 1). Mice were exposed to a single blast of ˜70 psi directed on the right side of the head. Contrast sensitivity was measured 1 week after blast.

SMILES | effects on blast-induced retinal and optic nerve damage
O=C1NCCCC1C(=O)NCCc1c[nH]c2ccc(O)cc12 (stereo not drawn) [HIOC, N-[2-(5-hydroxy-1H-indol-3-yl)ethyl]-2-oxopiperidine-3-carboxamide] | reduces vision loss, microglial activation in the retina, nerve fiber layer thinning, and the optic nerve axon loss

same assay, conditions: daily administration for one week

SMILES | duration of protection from blast-induced loss of visual function
O=C1NCCCC1C(=O)NCCc1c[nH]c2ccc(O)cc12 (stereo not drawn) [HIOC, N-[2-(5-hydroxy-1H-indol-3-yl)ethyl]-2-oxopiperidine-3-carboxamide] | at least 4 months

same assay, conditions: mice, single ~70 psi blast, 80 mg/kg, measured 1 week after blast

SMILES | TBI induced decrease in contrast sensitivity
O=C1NCCCC1C(=O)NCCc1c[nH]c2ccc(O)cc12 (stereo not drawn) [HIOC, N-[2-(5-hydroxy-1H-indol-3-yl)ethyl]-2-oxopiperidine-3-carboxamide] | completely prevented

tested on: AKT; assay: AKT phosphorylation, western blot, NIH 3T3 cells expressing human TrkB; type: cell-based; design: key: “+”=increased phosphorylation; “−”=decreased phosphorylation; “nc”=no change; conditions: NIH 3T3 - TrkB cells
Protocol: as §1, §2

SMILES | pAkt/β-actin
O=C(NCCc1c[nH]c2ccc(O)cc12)c1ccccc1 [Analogue 83, N-(2-(5-hydroxy-1H-indol-32-yl)ethyl)benzamide] | +
O=C(NCCc1c[nH]c2ccc(O)cc12)c1cccnc1 [Analogue 85, N-(2-(5-hydroxy-1H-indol-3-yl)ethyl)nicotinamide] | nc
O=C(NCCc1c[nH]c2ccc(O)cc12)c1ccccn1 [Analogue 105, N-(2-(5-hydroxy-1H-indol-3yl)ethyl)picolinamide] | +
O=C(NCCc1c[nH]c2ccc(O)cc12)c1ccncc1 [Analogue 107, N-(2-(5-hydroxy-1H-indol-3-yl)ethyl)isonicotinamide] | +
O=C1NCCCC1C(=O)NCCc1c[nH]c2ccc(O)cc12 (stereo not drawn) [HIOC, N-[2-(5-hydroxy-1H-indol-3-yl)ethyl]-2-oxopiperidine-3-carboxamide] | +
